Results on 3 molecules are retold here after patent US9084734B2, “Peptide personal care compositions and methods for their use” (Danisco US Inc., priority 2005, dated 2015).

One may read the Kd as the free concentration of one partner at which half of the binding sites on the other are occupied at equilibrium, for simple one-to-one binding. Read a low Kd as a tighter complex.

Bridge positions count the residues as written; N and C are the ends. Peptide text beside a SMILES is read from it.

Series [1] addresses T1, Human VEGF165 (Homo sapiens, UniProt P15692).
T1 construct: purchased Biosource
T1 sequence (P15692 27-191 isoform P15692-4): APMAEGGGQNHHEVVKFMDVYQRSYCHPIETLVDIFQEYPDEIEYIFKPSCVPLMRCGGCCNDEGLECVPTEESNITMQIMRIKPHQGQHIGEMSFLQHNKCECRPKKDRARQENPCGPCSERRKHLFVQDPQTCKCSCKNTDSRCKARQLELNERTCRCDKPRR
As to the kind of experiment: BIAcore binding analysis of VEGF-binding peptides (surface plasmon resonance). The following applies: two state reaction model with conformation change; 25° C. The protocol: FIG. 3 provides results of a BIACORE binding analysis of VEGF binding peptides. Binding curves were obtained as described in the Examples. Data were fit to a two state reaction model with conformation change: Analyte (A) binds to ligand (B) to form complex AB.
In this Example, experiments conducted to assess the affinities of the peptides for VEGF are described. Affinities of the peptides for VEGF were measured using a BIAcore™-3000 surface plasmon resonance system (Biacore). A CM5 sensor chip was conditioned with 50 mM NaOH, 0.1% HCl, 0.1% SDS, and 0.08% H3PO4, and activated for covalent coupling of VEGF using N-ethyl-N′-(3-dimethylaminopropyl)-carbodiimide hydrochloride (EDC) and N-hydroxysuccinimide (NHS) according to the supplier's instructions (Biacore). Human VEGF165 (Biosource) was diluted to 5 μg/ml in 20 mM sodium acetate, pH 4.8 and injected at a flow rate of 2 μl/min to achieve approximately 1000 to 6000 response units (RU) of coupled protein. TNF-alpha (human TNF-alpha, Biosource, Int., Camarillo, Calif.) was similarly coupled to the CM5 sensor chip to approximately 850 to 3500 RU in the reference lane. A solution of 1 M ethanolamine was injected as a blocking agent. In some experiments, an additional solution of EDC and NHS were injected to improve baseline stability and a solution of 1 M ethanolamine injected as a blocking agent. The reference lane was activated with EDC and NHS and blocked with ethanolamine.
Peptides were synthesized using standard FMOC chemistry, purified by reverse phase HPLC to >95% purity (SynPep), and stored at 10 mg/mL in DMSO. For kinetic measurements, twofold serial diluted peptides in HBS-EP buffer, 0.01 M HEPES pH 7.4, 0.15 M NaCl, 3 mM EDTA, 0.005% Surfactant P20 (Biacore), were injected at 25° C. at a flow rate of 20 μL/min. Two-fold serial diluted DMSO samples and buffer samples were also injected for background subtraction. Kinetic parameters were calculated using BIAevaluation 3.1 software.
(In general: Surface plasmon resonance follows binding to a sensor surface in real time, without labels.)

In series [2] the test system is human umbilical vein endothelial cells (HUVEC). Description: In vitro HUVEC proliferation assay (MTS) for hVEGF inhibitory peptides. The settings on record: 10 ng/ml VEGF, 48 hrs. In kind it is cell-based. On the procedure: FIG. 12 provides a graph showing HUVEC results for designated peptides.
In this Example, experiments conducted to determine the anti-proliferative activity of anti-VEG peptides are described. The antiproliferative activity of VEGF inhibitory peptides was determined using human umbilical vein endothelial cells (HUVEC) as follows. An early passage (less than six) of HUVEC was seeded in 96-well plates at 5000 cells per well and starved for 18 hrs in 200 μl EBM medium (Cambrex) without growth factors and supplemented with 0.5% FBS, at 37° C. with 5% CO2. The medium was replaced with 180 μl of growth medium containing EBM medium with 5% fetal bovine serum and 1% DMSO. Then, 20 μl of VEGF preincubated for one hour with varying peptide concentrations (the final DMSO concentration of all the wells was 1%) were added to the wells for a final VEGF concentration of 10 ng/ml. Human VEGF antibody (R & D Systems) was used as a positive control. Cells with 0.31 to 20 ng/ml concentrations of VEGF alone in the growth medium were used to construct a standard growth curve. The cells were further incubated for 48 hrs, and the cell proliferation was measured using an MTS assay (CellTiter 96 Aqueous One Solution Cell Proliferation Assay Kit; Promega). Then, 40 μl of the MTS tetrazolium solution was added to each well and after 3 and 4 hours incubation, the plates were read at 490 nm. […]

A further series concerns human skin. Description: Repeat insult patch testing (RIPT) on human skin. In kind it is in vivo. The following applies: 0.5% (w/v) in deionized water/butylene glycol; approximately 0.2 mL; 200 human volunteers. The protocol: In this Example, experiments conducted to determine the patch test result for anti-VEGF peptides are described. Samples of the aVEGF peptide CK37281 dosed at 0.5% (w/v) were formulated in a base formulation containing deionized water/butylene glycol. Approximately 0.2 mL of the formulation was applied to 200 human volunteers in a repeated insult patch test according to procedures designed by Clinical Research Laboratories, Inc. (Piscataway, N.J.).

The target of series [3] is T1, Human VEGF165. Description: BIAcore binding analysis of BBI-VEGF. The following applies: refolded protein, trypsin and chymotrypsin coupled in remaining lanes. The protocol: In this Example, experiments conducted to determine the binding affinity of constructs produced as indicated in Example 9 are described. Affinities of BBI-VEGF constructs for VEGF were measured using BIAcore-3000 surface plasmon resonance (Biacore). A CM5 sensor chip was conditioned with 50 mM NaOH and activated for covalent coupling of VEGF using N-ethyl-N′-(3-dimethylaminopropyl)-carbodiimide hydrochloride (EDC) and N-hydroxysuccinimide (NHS) according to the supplier's instructions (Biacore). VEGF (human VEGF165, Biosource) was diluted to 5 μg/mL in 20 mM sodium acetate, pH 4.8, and injected at a flow rate of 2 μL/min to achieve approximately 1000 to 6000 response units (RU) of coupled protein. Trypsin and chymotrypsin were similarly coupled to the CM5 sensor chip to approximately 850 to 3500 RU in remaining lanes. A solution of 1M ethanolamine was injected as a blocking agent.

For `CC(C)C[C@@H]1NC(=O)[C@H](CC(N)=O)NC(=O)[C@H](Cc2ccc(O)cc2)NC(=O)[C@@H](NC(=O)[C@H](C)N)CSSC[C@@H](C(=O)NCC(=O)NCC(=O)NCC(=O)O)NC(=O)[C@H]([C@@H](C)O)NC(=O)[C@H](Cc2c[nH]c3ccccc23)NC(=O)CNC(=O)[C@H](Cc2ccc(O)cc2)NC1=O` [CK37281, YNLYGWT], on Human VEGF165 [1], the ka2 is 1.5 e-3 s^−1 and the kd1 came to 0.0122 s⁻¹. Further, the IC50 entry in series [2] is on record as “micromolar range”. Besides, the “dermal irritation or sensitization” value with human skin was “no dermal irritation or sensitization”.

With `CC(C)C[C@@H]1NC(=O)[C@H](CC(N)=O)NC(=O)[C@@H](NC(=O)[C@H](C)N)CSSC[C@@H](C(=O)NCC(=O)NCC(=O)NCC(=O)O)NC(=O)[C@H](Cc2c[nH]c3ccccc23)NC(=O)[C@H](Cc2ccccc2)NC(=O)[C@H](Cc2c[nH]cn2)NC(=O)[C@@H]2CCCN2C(=O)[C@H](Cc2c[nH]c3ccccc23)NC1=O` [CK37283] (H-ACNLWPHFWCGGG-OH; disulfide 2-10; N-terminus and C-terminus assumed), at Human VEGF165 [1], binding was put at a Kd of 4.9 µM, the ka2 was 6.34 e-3 s^−1 and the kd1 stood at 0.318 s⁻¹. The IC50 entry in series [2] is given as “micromolar range”.

B1: BBI-VEGF1: BBI-VEGF fusion (SEQ ID NO:22) with only one of the binding loops replaced (protein)
chain: DDESSKPCCDQCACYNLYGWTCRCSDMRLNSCHSACKSCICALSYPAQCFCVDLTDFCEPCKPSEDDKEN
modifications: synthetic fusion peptide
For B1, the “specific/selective binding to VEGF” value with Human VEGF165 [3] was “binds specifically to VEGF”; in the series with Human VEGF165 [3] (listed as BBI-VEGF), “Selective binding affinity to VEGF”.
